Experimental data published in patent US11788044B2, “Rheologically biomimetic fluid surrogate” (EMULATE, INC., priority 2017, dated 2023).

How the values were obtained:
[1] = tested on: goblet cells hyperplasia, pro-inflammatory cytokines, cilia beating frequency; assay: Small-airway-on-a-chip perfused with IL-13 (Th2 microenvironment), airway remodeling phenotype; type: cell-based, human; details: IL-13 through the vascular channel
[2] = tested on: neutrophil recruitment to the endothelium; assay: Neutrophil recruitment in Airway-on-Chip emulating acute asthma exacerbation (HRV-16 infection, IL-13 stimulation); type: cell-based, human; details: 10 microM; three stimulation conditions (HRV-16, IL-13, HRV-16+IL-13); chips flipped
Description: As shown here, exemplary embodiments of an inflamed Airway-on-Chip emulating acute asthma exacerbation by combining Rhinovirus infection with IL-13 stimulation in the presence of an exemplary immuno-modulatory compound. In some embodiments, neutrophil recruitment following exacerbation with HRV can be reduced by an exemplary CXCR2 antagonist MK-7123, however these experiments were done by flipping chips. […] HRV-16 is represented as small green dots in the upper channel while neutrophil cells (also described as polymorphonuclear leukocytes (PMN)) are represented as large purple spots in the lower channel. […] Treatments included HRV-16 alone infected cells, IL-13 alone treated cells, HRV-16 and (+) IL-13 treated cells, HRV-16+CXCR2in (inhibitor) treated cells, and HRV-16+IL-13+CXCR2in. Non-stimulated chips are showing limited neutrophil recruitment while HRV infected and IL-13-treated chips show increased neutrophil recruitment. IL-13+HRV induce an additive increase in neutrophil recruitment, while treatment with a CXCR2 antagonist. […] Quantification of neutrophil recruitment (**p<0.01; ****p<0.001).
HRV-16 is represented as small green dots in the upper channel while neutrophil cells (also described as polymorphonuclear leukocytes (PMN)) are represented as large purple spots in the lower channel. […] Quantification of neutrophil recruitment (**p<0.01; ****p<0.001).

| Structure (SMILES) | IL-13 induced airway remodeling phenotype [1] | neutrophil recruitment [2] |
| --- | --- | --- |
| C[C@@H]1CCN(C(=O)CC#N)C[C@@H]1N(C)c1ncnc2[nH]ccc12 [Tofacitinib] | suppressed | – |
| CC[C@@H](Nc1c(Nc2cccc(C(=O)N(C)C)c2O)c(=O)c1=O)c1ccc(C)o1 [MK-7123] | – | significantly reduced neutrophil recruitment |
